In brackets after ≈: the same amount, converted by molar mass.

Here are results for one compound from patent publication US8142821B2, “Xanthohumol-enriched hop extract” (Flazan GmbH & Co. KG, priority 2007, dated 2012).

Assay [1] is described as follows: ORAC-Total (ORAClipo + ORAChydro). To be noted: among hop components. Here is the method:
(§1) In the present work, the ORAC value is expressed as the sum of values of both the water-soluble and fat-soluble parts. Green tea catechins (Polyphenon 60) were used as the control with the highest ORAC value among edible plants. Vitamin C and vitamin E were used as controls for water- and fat-soluble molecules, respectively. Both hydrophilic and lipophilic oxygen radical absorbance capacity (ORAC) assays were carried out at Brunswick Laboratory (Wareham, Mass.) based on the modified ORACfl method reported by Ou et al. (2001 J. Agric. Food Chem. 49: 4619-4626, 2002 J. Agr. Food Chem. 50: 3122-3128). Trolox, a water-soluble vitamin E analog, was used as the calibration standard. The data are expressed as mmole of Trolox equivalents per gram (mmol TE/g). […] Hydroxyl radical ORAC (HOR-AC) is expressed as mmole caffeic acid equivalent per gram (mmol CAE/g). […] The peroxyl nitrite ORAC (NORAC) result is expressed as mmol TE/g. Alpha-tocopherol (vitamin E) was used as the calibration standard, and the singlet oxygen absorbance capacity (SOAC) result is expressed as mmole a-tocopherol equivalent (mmol VtE) per gram (Aubry et al. 1989 J. Org. Chem. 54: 726-728). […] Radical-scavenging activity was measured by the change in absorbance at 517 nm with the DPPH result expressed as mmol TE/g. […] The FRAP result is expressed as mmol TE/g (Ou et al. J. Agric. Food Chem. 49: 4619-4626). […]

Assay [2] in a line: FRAP, ferric reducing antioxidative power. Particulars: among hop components. The procedure:
as §1, with “[table] […] The SOAC scores are not included in this figure;” for “In the present work, the”, “values used are” for “value is expressed as”, “lipophilic and hydrophilic results. For each assay category, scaling was made logarithmic so that” for “values of both”, “plot on” for “water-soluble and fat-soluble parts. Green tea catechins (Polyphenon 60) were used as”, “chart resembles” for “control with”, “associated rating. […] The larger the spatial area, the higher the overall antioxidative capacity. […]” for “highest ORAC value among edible plants. Vitamin C and vitamin E were used as controls for water- and fat-soluble molecules, respectively.”

Assay [3] deals with S. epidermidis (ATCC 12228). In words: Antimicrobial susceptibility, broth dilution. Particulars: Staphylococcus epidermidis, ATCC12228; lowest concentration required to kill. Type of assay: cell-based. Here is the method:
(§2) The antibacterial effects of seven hops components against five different strains of bacteria involved in primary or secondary skin and soft tissue infections was evaluated, with broth dilution methods. […] Antimicrobial susceptibility testing was performed using a broth dilution method. Gentamicin or ampicillin was used as a control to verify the methodology. A stock solution (20 mg/ml) of the test substance (or vehicle control) was prepared in dimethyl sulfoxide. Serial dilution was done in microwell plates. Reinforced Clostridial Medium was used for P. acnes (ATCC 6919). Three hundreds […] of the test substance was added to the test tube containing P. acnes (10^5 CFU/ml) in 2.7 ml of cultures grown under anaerobic conditions. Mueller-Hinston Broth suitable for culturing S. epidermidis (ATCC 12228), K. rhizophila (formerly M. luteus) (ATCC 9341), and S. aureus (ATCC […]), and Brain Heart Infusion Broth suitable for culturing S. pyogenes (ATCC 14289) were used. A total of […] of the test substance was added to the test tube containing the other microorganisms (10^5 CFU/ml) in 0.9 ml of cultures grown under controlled conditions. […] Samples from those tubes that scored positive was plated onto an agar plate and incubated under controlled conditions.
(In general: Broth dilution looks for growth in wells or tubes with falling amounts of substance.)

Another assay has as its system P. acnes (ATCC 6919). In words: Antimicrobial susceptibility, broth dilution. Type of assay: cell-based. To be noted: Cutibacterium acnes, ATCC6919; lowest concentration required to kill. Here is the method:
as §2

Assay [4] concerns K. rhizophila (formerly M. luteus) (ATCC 9341). In words: Antimicrobial susceptibility, broth dilution. Particulars: Kocuria rhizophila, ATCC9341; lowest concentration required to kill. Type of assay: cell-based. Here is the method:
as §2

Another assay has as its system S. pyogenes (ATCC 14289). In words: Antimicrobial susceptibility, broth dilution. Type of assay: cell-based. Particulars: Streptococcus pyogenes, ATCC14289; lowest concentration required to kill. Here is the method:
as §2

For the next assay, the system named is S. aureus (ATCC 6538P). In words: Antimicrobial susceptibility, broth dilution. The format is cell-based. To be noted: Staphylococcus aureus, ATCC6538P; lowest concentration required to kill. The procedure:
as §2

A short description of assay [5]: HORAC, hydroxyl radical ORAC. Particulars: among hop components. Here is the method:
as §1, with “[table] […] The SOAC scores are not included in this figure;” for “In the present work, the”, “values used are” for “value is expressed as”, “lipophilic and hydrophilic results. For each assay category, scaling was made logarithmic so that” for “values of both”, “plot on” for “water-soluble and fat-soluble parts. Green tea catechins (Polyphenon 60) were used as”, “chart resembles” for “control with”, “associated rating. […] The larger the spatial area, the higher the overall antioxidative capacity. […]” for “highest ORAC value among edible plants. Vitamin C and vitamin E were used as controls for water- and fat-soluble molecules, respectively.”

The nature of the next assay: SOD antioxidant assay. To be noted: among hop components.

A word on the MBC: it is the smallest concentration meeting the test's criterion for killing. High values mean less potent killing, low ones more potent killing. Consider `COc1cc(O)c(CC=C(C)C)c(O)c1C(=O)/C=C/c1ccc(O)cc1` [Xanthohumol (7), Xanthohumol], for which the “rank of quenching activity against peroxyl radical (ORAC-total), FIG. 2” value in assay [1] was “highest quenching activity”. The “rank of quenching activity against ferric ion (FRAP), FIG. 2” value in assay [2] is “highest quenching activity”. The MBC in assay [3] amounted to 10 µg/mL (≈ 28.2 µM); in the assay with P. acnes (ATCC 6919) it was 3 µg/mL (≈ 8.46 µM); in [4] it was 10 µg/mL (≈ 28.2 µM); against S. pyogenes (ATCC 14289), 3 µg/mL (≈ 8.46 µM); in the assay with S. aureus (ATCC 6538P) it was 100 µg/mL (≈ 282 µM). In addition, in assay [5], the “rank of quenching activity against hydroxyl radical (HORAC), FIG. 2” value is listed as “highest quenching activity”. In “SOD antioxidant assay”, the “rank of quenching activity against superoxide (SOD), FIG. 2” value is listed as “highest quenching activity”.
